# From PMC10983001, “Development of Cytotoxic GW7604-Zeise’s Salt Conjugates as Multitarget Compounds with Selectivity for Estrogen Receptor- Positive Tumor Cells” (Journal of Medicinal Chemistry, 2024)
# What was measured:
# [1] = test system: MCF-7 cells; experiment: Comet assay; format: cell-based, human; details: MCF-7, 20 μM, 48 h
# Method: The comet assay (Figure 10), however, documents different consequences of DNA binding. […] The picture (Figure 10C) is very similar to that of the solvent control (Figure 10A).
# MCF-7 cells were seeded at a density of 1.0 × 10^6 cells into a 25 cm^2 flask, followed by 24 h of incubation in a humidified atmosphere (5% CO2/95% air) at 37 °C. […] Cells were incubated with the compounds for 48 h. The assay was performed according to the manufacturer’s protocol (Comet assay kit, Abcam, Cambridge, UK). Briefly, after lysis and application to the microscopy slides, electrophoresis was run in an alkaline buffer for 20 min at 2 V/cm. Subsequently, slides were washed with pure deionized water and EtOH/water [7/3 (v/v)], and stained with Vista Green DNA Dye. Visualization was carried out by real-time live confocal microscopy using an inverted microscope (Zeiss Observer Z1) in arrangement with a spinning disc confocal system (UltraVIEW VoX).
# [2] = test system: MCF-7 cells; experiment: Cellular uptake (platinum by HR-CS-AAS), MCF-7; format: cell-based, human; details: MCF-7, 20 μM
# Method: In order to reach the DNA, the complexes must first pass through the cell membrane and penetrate into the nuclei. Therefore, the cellular uptake kinetics of GW7604-Alk-PtCl3 complexes were studied using the example of GW7604-Pent-PtCl3. This complex and Cisplatin, respectively, were incubated at a concentration of 20 μM with MCF-7 or SKBr3 cells. After various time points [i.e., 0 (3 min), 0.5, 1, 2, 4, and 8 h], cell pellets were prepared, and the platinum content was quantified by high-resolution continuum source atomic absorption spectrometry (HR-CS-AAS).[52]
# After thawing of the cell/nuclei pellets, they were resuspended in ultrapure water (Siemens LaboStar, Günzburg, Germany; 300 μL) and lyzed with a sonotrode (Bandelin Sonoplus, Berlin, Germany; parameters 20 s, 9 cycles, 80% power). Graphite furnace (GF) AAS was used to quantify the lysates concerning their content of platinum (λ = 265.9450 nm). For this purpose, a contrAA 700 High-Resolution-Continous Source AAS (Analytik Jena, Jena, Germany) was employed, while atomization took place by electrothermal heating of graphite tubes with an inserted platform (Analytik Jena, Jena, Germany). A time–temperature program reported in the literature[25] was followed with minor adjustments. The liquid samples kept in 0.5 mL polystyrene vials (Gesellschaft für Analysentechnik, Salzwedel, Germany) were injected directly into the pyrolytically coated tubes using an MPE 60 autosampler (Analytik Jena, Jena, Germany). Throughout the measurements, argon (Alphagaz 1, 99.999%, Air Liquide, Düsseldorf, Germany) served as the purge and protective gas. The spectrometer was monitored with the ASpect CS software, version 2.3.1.0 (Analytik Jena, Jena, Germany). For all runs, the mean integrated absorbance was determined after three injections of each standard or sample. Calibration was performed by an appropriate dilution of a solution of Cisplatin (Sigma-Aldrich, Taufkirchen, Germany) obtaining five standards (2–10 μg/L, R^2 ≥ 0.982). Each cell/nuclei lysate was quantified concerning its protein content following the method of Bradford[71] in order to express the uptake as the amount of compound (pmol) in the lysate relative to its protein mass (mg). Therefore, solutions of Albumin fraction V (Carl Roth, Karlsruhe, Germany) diluted with ultrapure water were adduced for the calibration (six standards, 50–300 μg/mL, R^2 ≥ 0.996). A volume of 20 μL of the Albumin standards or the lysates was added to a 96-well plate (Sarstedt, Nürmbrecht, Germany) and supplemented with 200 μL of Bradford’s reagent (Roti-Nanoquant, Carl Roth, Karlsruhe, Germany; diluted 5-fold with ultrapure water). All standards and lysates were measured in duplicate. After incubating for 5 min at rt, the absorbance (λ = 595 nm) was read on a microplate reader (Tecan Safire 2, Männedorf, Switzerland). The cellular/nuclear uptake (pmol complex/mg protein) is given as the mean ± SD of 2 independent experiments.
# For cellular uptake studies, 1.0 × 10^6 of MCF-7 and SKBr3 cells in their exponential growing phase were seeded into 25 cm^2 cell culture flasks and incubated for 24 h under a humidified atmosphere (5% CO2/95% air) at 37 °C. Stock solutions of the platinum complexes (GW7604-Pent-PtCl3, Cisplatin) in DMF were freshly prepared and diluted with complete DMEM containing 10% FCS to the desired concentration [final DMF concentration of 0.1% (v/v), final complex concentration of 20 μM]. The medium in the cell culture flasks was replaced with 3 mL of fresh cell culture medium containing the compounds, and the flasks were incubated under a humidified atmosphere at 37 °C for 3 min, 0.5, 1, 2, 4, and 8 h. Cell pellets were prepared by removing the medium, washing two times with phosphate-buffered saline (PBS), and detaching the cells with Accutase (GE Healthcare, BioSciences, Chicago, IL, USA). Subsequently, cells were pelleted by centrifugation (4 °C, 380g, 3 min). […]
# [3] = biological target: T1, human recombinant COX-1 (Homo sapiens, UniProt P23219); format: biochemical; details: incubation 10 min
# T1 construct: purchased Cayman Chemicals
# T1 sequence (P23219 24-599): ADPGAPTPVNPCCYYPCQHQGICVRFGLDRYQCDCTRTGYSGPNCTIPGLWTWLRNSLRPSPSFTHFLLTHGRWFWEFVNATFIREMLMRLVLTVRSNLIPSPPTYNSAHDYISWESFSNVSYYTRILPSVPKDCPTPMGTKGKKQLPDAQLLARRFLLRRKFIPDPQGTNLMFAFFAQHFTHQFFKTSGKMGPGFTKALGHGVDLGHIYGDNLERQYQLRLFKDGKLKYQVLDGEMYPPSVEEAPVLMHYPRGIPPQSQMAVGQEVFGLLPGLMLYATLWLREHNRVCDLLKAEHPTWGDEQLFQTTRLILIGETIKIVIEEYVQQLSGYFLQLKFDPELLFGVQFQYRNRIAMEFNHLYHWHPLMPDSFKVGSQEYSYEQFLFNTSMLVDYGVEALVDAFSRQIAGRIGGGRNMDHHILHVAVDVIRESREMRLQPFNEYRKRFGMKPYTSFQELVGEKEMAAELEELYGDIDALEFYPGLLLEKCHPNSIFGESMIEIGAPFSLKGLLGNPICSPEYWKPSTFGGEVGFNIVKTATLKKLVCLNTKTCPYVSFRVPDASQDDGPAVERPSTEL
# Method: (§1) COX-1/2 inhibition was evaluated in an established assay on isolated isoenzymes. After incubation with the drugs (concentration: 20 μM) for 10 min, the remaining COX activity was measured by an enzyme-linked immunosorbent assay (ELISA).
# (§2) The incubation time of the compounds with the respective isoenzymes was exactly 10 min. The results are presented as the mean ± SEM of three independent experiments, with two replicates of each experiment. […] Graphs were drawn using GraphPad Prism 8.0.
# [4] = biological target: T2, human recombinant COX-2 (Homo sapiens, UniProt P35354); format: biochemical; details: incubation 10 min
# T2 construct: purchased Cayman Chemicals
# T2 sequence (P35354 18-604): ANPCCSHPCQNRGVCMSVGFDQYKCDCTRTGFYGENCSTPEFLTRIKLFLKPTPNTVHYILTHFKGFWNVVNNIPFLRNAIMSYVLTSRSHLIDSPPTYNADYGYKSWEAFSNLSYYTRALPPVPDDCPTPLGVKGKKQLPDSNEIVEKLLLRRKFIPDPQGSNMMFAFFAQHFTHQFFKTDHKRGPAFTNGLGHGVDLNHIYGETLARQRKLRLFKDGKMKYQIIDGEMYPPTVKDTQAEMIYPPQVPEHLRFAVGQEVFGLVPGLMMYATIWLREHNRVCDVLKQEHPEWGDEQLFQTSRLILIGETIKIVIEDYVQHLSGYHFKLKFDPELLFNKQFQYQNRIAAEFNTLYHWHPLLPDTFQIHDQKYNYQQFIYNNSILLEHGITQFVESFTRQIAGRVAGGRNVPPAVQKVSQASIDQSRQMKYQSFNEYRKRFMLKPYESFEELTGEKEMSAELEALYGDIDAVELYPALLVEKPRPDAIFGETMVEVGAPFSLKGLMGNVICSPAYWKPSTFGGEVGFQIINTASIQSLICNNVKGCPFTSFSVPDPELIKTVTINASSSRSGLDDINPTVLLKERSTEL
# Method: as §1, §2
smiles,measurement,setting,value
"CCC(=C(c1ccc(O)cc1)c1ccc(C=CC(=O)OCCC[CH]2[CH2][Pt-]2([Cl])([Cl])[Cl])cc1)c1ccccc1.[K+] (mixture of isomers) [GW7604-Pent-PtCl3, Potassium trichlorido[η^2-(pent-4-en-1-yl (E)-3-(4-((E/Z)-1-(4-hydroxyphenyl)-2-phenylbut-1-en-1-yl)phenyl)acrylate)]platinate(II)]",comet tails (DNA cross-links),[1],did not show this effect
same,intracellular platinum amount,[2]; 0.5 h,130 pmol/mg
same,intracellular platinum amount,[2]; 1 h,265 pmol/mg
same,intracellular platinum amount,[2]; 2 h,371 pmol/mg
same,intracellular platinum amount,[2]; 4 h,659 pmol/mg
same,intracellular platinum amount,[2]; 8 h,818 pmol/mg
same,IC50,[3]; 0.1–20 μM,1700 nM
same,"concentration at which maximum activity is reached, COX-1",[3],10 µM
same,IC50,[4]; 0.1–20 μM,1820 nM
same,"concentration at which maximum activity is reached, COX-2",[4],10 µM
